ChEMBL document CHEMBL1201862, “PubChem BioAssay data set” (2004)
Active and inactive are the calls of the source.

Key:
Trypsin = Trypsin (Sus scrofa, UniProt P00761); experiment: trypsin protease activity blockade – biochemical, quenched peptide fluorescence, cherry-pick, selectivity assay for Rce1 protease inhibitor project, dose response (AID 488789)
CAAX prenyl protease 2 = CAAX prenyl protease 2 (Saccharomyces cerevisiae S288c, UniProt Q03530); type: biochemical
BJ [1] = experiment: cells; type: functional, cell-based; details: Homo sapiens
BJ [2] = experiment: BJ-TERT fibroblast viability loss – cell-based, RAS-independent, luminescence, dose response (AID 1933); type: functional; details: Homo sapiens
BJ [3] = experiment: BJ-TERT-LT-ST fibroblast viability loss – cell-based, RAS-independent, luminescence, dose response (AID 1935); type: functional; details: Homo sapiens;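 also: BJ fibroblasts immortalized with TERT plus LT and ST oncogenes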
J774.A1 = experiment: Confirmation of image-based Screening Assay for Inhibitors of Phagocytosis. [Related pubchem assays (depositor defined):AID1029, AID1643]; type: functional, cell-based; details: Mus musculus
[4] = alpha-synuclein stem-loop translation blockers – luminescence, H4 neuroglioblastoma cells, dose confirmation, confirmation (AID 2454); type: functional, cell-based;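 also: H4 neuroglioblastoma cells carrying an alpha-synuclein 5'UTR luciferase reporter; potency for inhibition of the luciferase signal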
[5] = luciferase reporter signal suppression in cells – H4 neuroglioma cells, luminescence, dose response (AID 1990); type: functional, cell-based
[6] = Luminescence Cell-Based Dose Response HTS to Identify Inhibitors of 5'UTR Stem-Loop Driven Prion Protein mRNA Translation in H4 Neuroglioblastoma Cells. [Related pubchem assays: 1827 (Project Summary), 1813 (Primary HTS)]; type: functional
cells = type: functional, cell-based
[7] = DRD fibroblast viability loss – cell-based, non-viral oncogenic, luminescence, dose response (AID 1934); type: functional; details: Homo sapiens
Prothrombin = Prothrombin (Homo sapiens, UniProt P00734); experiment: Thrombin 1536 HTS Dose Response Confirmation. [Related pubchem assays: 1046 (Thrombin 1536 HTS; hits were confirmed in this assay)]; type: functional
[8] = luciferase reporter signal reduction – luminescence, H4-C neuroglioblastoma cells, dose response (AID 2458); type: functional, cell-based;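 also: H4 neuroglioblastoma cells stably carrying a luciferase reporter gene fusion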
[9] = alpha-synuclein stem-loop luciferase translation blockers – H4 neuroglioma cells, luminescence, confirmation (AID 1988); type: functional, cell-based
[10] = viability loss in THP-1 monocytes – THP-1 cells, cytotoxicity control for Vif-APOBEC3G degradation inhibitor project, dose response (AID 1117359); type: functional; details: THP-1
Protein Tat = biological target: T1, Protein Tat (Human immunodeficiency virus type 1 group M subtype B (isolate HXB2)(HIV-1), UniProt P04608); type: functional;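 also: tat binding to TAR RNA read out by fluorescence polarization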
T1 sequence (P04608 whole entry): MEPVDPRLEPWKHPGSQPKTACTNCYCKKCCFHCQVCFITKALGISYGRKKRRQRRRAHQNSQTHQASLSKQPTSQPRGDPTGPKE

Protein Rev = Protein Rev (Human immunodeficiency virus type 1 group M subtype B (isolate HXB2)(HIV-1), UniProt P04618); experiment: blockers of HIV Rev/RRE RNA complex – biochemical, fluorescence polarization, HIV-1, dose response (AID 434976); design: species or system Human immunodeficiency virus 1
[11] = biological target: T2, Polyadenylate-binding protein 1 (Homo sapiens, UniProt P11940); experiment: MLLE binding blockers, Cy5 peptide tracer – biochemical, fluorescence polarization, Cy5-PAM2 peptide, secondary, miRNA deadenylation inhibitor project, dose response (AID 602260); type: functional; details: read-out: IC50_Mean
[12] = biological target: Female germline-specific tumor suppressor gld-1 (Caenorhabditis elegans, UniProt Q17339); experiment: blockers of GLD-1/TGE RNA complex formation – biochemical, fluorescence polarization, C. elegans, dose response (AID 2802);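 also: fluorescence polarization of labeled TGE RNA bound by purified gld-1 protein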
[13] = biological target: T2, Polyadenylate-binding protein 1; experiment: MLLE domain peptide-binding blockers, IC50 – biochemical, fluorescence polarization, FITC-PAM2 peptide, dose response (AID 602259); type: functional; details: read-out: IC50_Mean
[14] = biological target: T3, Tyrosine-protein phosphatase non-receptor type 7 (Homo sapiens, UniProt P35236); experiment: redox-active compounds inhibiting HePTP phosphatase – biochemical, fluorescence, mechanism study (AID 2068); type: functional
T3 sequence (P35236 whole entry): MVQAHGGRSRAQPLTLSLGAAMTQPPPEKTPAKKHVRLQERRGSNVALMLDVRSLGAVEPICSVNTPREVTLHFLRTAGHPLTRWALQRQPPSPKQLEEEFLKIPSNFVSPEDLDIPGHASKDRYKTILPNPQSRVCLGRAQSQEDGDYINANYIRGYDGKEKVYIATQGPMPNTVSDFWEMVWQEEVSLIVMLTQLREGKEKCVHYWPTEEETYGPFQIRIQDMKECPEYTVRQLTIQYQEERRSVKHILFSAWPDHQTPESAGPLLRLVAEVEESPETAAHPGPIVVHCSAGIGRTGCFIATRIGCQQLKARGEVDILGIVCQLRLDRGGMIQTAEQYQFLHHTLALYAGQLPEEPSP

[15] = biological target: T4, Dual specificity protein phosphatase 3 (Homo sapiens, UniProt P51452); experiment: SAR VHR1 absorbance Assay for In Vitro dose response studies. [Related pubchem assays (depositor defined):AID1654, AID1661, AID1878, AID1992, AID2004]
[16] = biological target: T4, Dual specificity protein phosphatase 3; experiment: VHR1 phosphatase inhibitors, biochemical (AID 1878)
[17] = biological target: T5, Long-chain-fatty-acid--AMP ligase FadD28 (Mycobacterium tuberculosis, UniProt P9WQ59); experiment: Fluorescence polarization aasay to screen for inhibitors that compete for the binding of FadD28 to a bisubstrate Measured in Biochemical System Using Plate Reader - 2147-01_Inhibitor_Dose_CherryPick_Activity.; type: functional, Mycobacterium tuberculosis H37Rv
T5 sequence (P9WQ59 whole entry): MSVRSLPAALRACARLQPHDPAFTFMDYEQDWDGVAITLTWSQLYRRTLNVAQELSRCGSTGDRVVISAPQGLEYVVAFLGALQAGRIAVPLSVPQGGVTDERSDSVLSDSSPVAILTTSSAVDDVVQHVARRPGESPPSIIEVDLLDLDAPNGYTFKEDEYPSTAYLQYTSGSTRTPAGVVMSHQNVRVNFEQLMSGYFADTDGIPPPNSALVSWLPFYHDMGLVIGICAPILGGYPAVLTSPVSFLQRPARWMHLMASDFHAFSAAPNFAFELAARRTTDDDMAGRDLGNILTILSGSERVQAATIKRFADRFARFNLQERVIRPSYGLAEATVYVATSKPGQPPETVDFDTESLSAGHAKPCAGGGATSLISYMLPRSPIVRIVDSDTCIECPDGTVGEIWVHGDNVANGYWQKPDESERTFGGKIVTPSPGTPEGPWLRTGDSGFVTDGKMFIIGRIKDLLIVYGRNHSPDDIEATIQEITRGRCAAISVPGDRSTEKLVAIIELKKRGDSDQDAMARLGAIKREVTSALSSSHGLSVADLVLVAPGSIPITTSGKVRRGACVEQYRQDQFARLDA

[18] = biological target: T4, Dual specificity protein phosphatase 3; experiment: SAR VHR1 Fluorescent Assay for In Vitro dose response studies. [Related pubchem assays (depositor defined):AID1654, AID1661, AID1878, AID1992, AID2004, AID2070, AID2085]; type: functional
[19] = biological target: T6, Voltage-gated N-type calcium channel alpha-1B subunit/Amyloid beta A4 precursor protein-binding family A member 1 (Homo sapiens, UniProt Q00975+Q02410); type: protein assay
[20] = biological target: T7, Tyrosine-protein phosphatase non-receptor type 22 (Homo sapiens, UniProt Q9Y2R2); experiment: inhibition of lymphoid tyrosine phosphatase LYP – biochemical, pCAP fluorogenic substrate, fluorescence, set 3, SAR follow-up (AID 449727); type: functional
T7 sequence (Q9Y2R2 whole entry): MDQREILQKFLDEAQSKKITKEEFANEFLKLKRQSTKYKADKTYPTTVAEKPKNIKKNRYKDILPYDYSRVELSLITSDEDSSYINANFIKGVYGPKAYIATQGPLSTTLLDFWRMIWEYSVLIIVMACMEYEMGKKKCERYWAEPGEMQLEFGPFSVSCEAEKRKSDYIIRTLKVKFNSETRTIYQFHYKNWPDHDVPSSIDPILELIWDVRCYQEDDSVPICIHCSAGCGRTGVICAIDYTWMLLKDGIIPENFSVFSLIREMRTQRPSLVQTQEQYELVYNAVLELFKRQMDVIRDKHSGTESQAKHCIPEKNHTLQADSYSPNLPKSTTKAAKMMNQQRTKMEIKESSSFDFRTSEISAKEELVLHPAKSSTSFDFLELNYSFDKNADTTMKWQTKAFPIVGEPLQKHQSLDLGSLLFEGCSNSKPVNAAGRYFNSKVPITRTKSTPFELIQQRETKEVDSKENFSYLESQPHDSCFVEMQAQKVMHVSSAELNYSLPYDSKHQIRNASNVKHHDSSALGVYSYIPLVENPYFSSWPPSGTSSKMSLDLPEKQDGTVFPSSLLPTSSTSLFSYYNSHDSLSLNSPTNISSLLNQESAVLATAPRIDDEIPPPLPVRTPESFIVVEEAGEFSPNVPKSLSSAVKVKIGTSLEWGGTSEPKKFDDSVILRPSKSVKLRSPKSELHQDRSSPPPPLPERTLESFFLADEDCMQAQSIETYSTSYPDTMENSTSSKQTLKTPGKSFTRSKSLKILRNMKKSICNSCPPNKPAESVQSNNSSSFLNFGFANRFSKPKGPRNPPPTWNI

[21] = biological target: T7, Tyrosine-protein phosphatase non-receptor type 22; experiment: SAR LYP1 Fluorescent Assay using OMFP substrate for In Vitro dose response studies - Set 3. [Related pubchem assays (depositor defined):AID1779, AID1784, AID2140, AID2686]; type: functional
[22] = biological target: T8, Dual specificity protein phosphatase 6 (Rattus norvegicus, UniProt Q64346); type: functional;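 also: confirmatory in vitro dose-response testing of MKP-3 inhibition; recombinant His-tagged MKP-3 made in E. coli BL21 with OMFP substrate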
T8 sequence (Q64346 whole entry): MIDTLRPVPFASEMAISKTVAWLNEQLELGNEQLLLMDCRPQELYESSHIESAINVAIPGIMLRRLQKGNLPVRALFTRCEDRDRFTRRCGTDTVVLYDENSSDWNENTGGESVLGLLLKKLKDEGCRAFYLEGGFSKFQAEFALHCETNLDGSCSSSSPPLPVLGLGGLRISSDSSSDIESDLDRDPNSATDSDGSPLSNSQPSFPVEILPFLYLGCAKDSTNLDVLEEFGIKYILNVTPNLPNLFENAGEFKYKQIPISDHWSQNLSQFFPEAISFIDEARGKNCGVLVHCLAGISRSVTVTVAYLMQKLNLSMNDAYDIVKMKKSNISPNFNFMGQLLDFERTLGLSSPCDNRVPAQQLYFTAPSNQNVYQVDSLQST

[23] = biological target: Serine/threonine-protein phosphatase (Homo sapiens, UniProt Q9BPW0); experiment: Counterscreen for inhibitors of PP1: fluorescence-based biochemical high throughput dose response assay to identify inhibitors of Protein Phosphatase 5 (PP5). [Related pubchem assays: 2034 (Summary (PP5 inhibitors)), 1987 (PP5 inhibitors in singlate), 2235 (PP1 inhibitors in singlate)]
[24] = biological target: Serine/threonine-protein phosphatase PP1-alpha catalytic subunit (Homo sapiens, UniProt P62136); experiment: inhibition of protein phosphatase 1 activity – biochemical, fluorescence, dose response (AID 2403);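 also: phosphatase turnover of OMFP into fluorescent 3-O-methylfluorescein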
[25] = biological target: T6, Voltage-gated N-type calcium channel alpha-1B subunit/Amyloid beta A4 precursor protein-binding family A member 1; type: protein assay; remark: listed apart in the source
[26] = biological target: T4, Dual specificity protein phosphatase 3; experiment: VHR1 phosphatase inhibitors, primary screen, biochemical, absorbance, uHTS (AID 1654)
[27] = biological target: Tyrosine-protein phosphatase non-receptor type 12 (Homo sapiens, UniProt Q05209); experiment: SAR Selectivity Analysis of small molecule inhibitors of PEST using pCAP in a fluorescence assay. [Related pubchem assays (depositor defined):AID1779, AID1784, AID2135]; type: functional
[28] = biological target: T8, Dual specificity protein phosphatase 6; experiment: inhibition of rat DUSP6 enzyme activity – biochemical, in vitro, primary screen (AID 425)

T4 sequence (P51452 whole entry): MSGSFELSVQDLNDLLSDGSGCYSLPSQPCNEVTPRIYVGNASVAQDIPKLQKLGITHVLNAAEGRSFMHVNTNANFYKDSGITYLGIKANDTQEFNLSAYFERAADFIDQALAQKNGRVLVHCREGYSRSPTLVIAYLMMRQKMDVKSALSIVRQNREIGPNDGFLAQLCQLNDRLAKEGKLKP
T2 sequence (P11940 whole entry): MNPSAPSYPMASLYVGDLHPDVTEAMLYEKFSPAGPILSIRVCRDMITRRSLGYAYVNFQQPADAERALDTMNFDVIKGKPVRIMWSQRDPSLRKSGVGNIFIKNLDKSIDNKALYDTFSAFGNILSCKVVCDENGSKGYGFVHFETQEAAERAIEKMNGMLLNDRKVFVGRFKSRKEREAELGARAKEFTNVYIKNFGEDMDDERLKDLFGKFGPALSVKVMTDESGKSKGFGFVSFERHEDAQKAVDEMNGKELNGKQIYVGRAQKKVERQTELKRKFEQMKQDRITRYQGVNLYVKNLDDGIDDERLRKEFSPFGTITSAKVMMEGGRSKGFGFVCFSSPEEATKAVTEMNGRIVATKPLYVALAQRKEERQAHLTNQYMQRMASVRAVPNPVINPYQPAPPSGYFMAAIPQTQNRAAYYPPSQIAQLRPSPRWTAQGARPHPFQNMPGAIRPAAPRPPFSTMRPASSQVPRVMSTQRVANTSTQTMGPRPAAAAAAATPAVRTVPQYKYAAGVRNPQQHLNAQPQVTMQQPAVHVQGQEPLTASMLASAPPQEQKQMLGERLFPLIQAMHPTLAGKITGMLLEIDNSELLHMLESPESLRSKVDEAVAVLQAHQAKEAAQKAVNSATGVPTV
T6 sequence (Q00975 whole entry): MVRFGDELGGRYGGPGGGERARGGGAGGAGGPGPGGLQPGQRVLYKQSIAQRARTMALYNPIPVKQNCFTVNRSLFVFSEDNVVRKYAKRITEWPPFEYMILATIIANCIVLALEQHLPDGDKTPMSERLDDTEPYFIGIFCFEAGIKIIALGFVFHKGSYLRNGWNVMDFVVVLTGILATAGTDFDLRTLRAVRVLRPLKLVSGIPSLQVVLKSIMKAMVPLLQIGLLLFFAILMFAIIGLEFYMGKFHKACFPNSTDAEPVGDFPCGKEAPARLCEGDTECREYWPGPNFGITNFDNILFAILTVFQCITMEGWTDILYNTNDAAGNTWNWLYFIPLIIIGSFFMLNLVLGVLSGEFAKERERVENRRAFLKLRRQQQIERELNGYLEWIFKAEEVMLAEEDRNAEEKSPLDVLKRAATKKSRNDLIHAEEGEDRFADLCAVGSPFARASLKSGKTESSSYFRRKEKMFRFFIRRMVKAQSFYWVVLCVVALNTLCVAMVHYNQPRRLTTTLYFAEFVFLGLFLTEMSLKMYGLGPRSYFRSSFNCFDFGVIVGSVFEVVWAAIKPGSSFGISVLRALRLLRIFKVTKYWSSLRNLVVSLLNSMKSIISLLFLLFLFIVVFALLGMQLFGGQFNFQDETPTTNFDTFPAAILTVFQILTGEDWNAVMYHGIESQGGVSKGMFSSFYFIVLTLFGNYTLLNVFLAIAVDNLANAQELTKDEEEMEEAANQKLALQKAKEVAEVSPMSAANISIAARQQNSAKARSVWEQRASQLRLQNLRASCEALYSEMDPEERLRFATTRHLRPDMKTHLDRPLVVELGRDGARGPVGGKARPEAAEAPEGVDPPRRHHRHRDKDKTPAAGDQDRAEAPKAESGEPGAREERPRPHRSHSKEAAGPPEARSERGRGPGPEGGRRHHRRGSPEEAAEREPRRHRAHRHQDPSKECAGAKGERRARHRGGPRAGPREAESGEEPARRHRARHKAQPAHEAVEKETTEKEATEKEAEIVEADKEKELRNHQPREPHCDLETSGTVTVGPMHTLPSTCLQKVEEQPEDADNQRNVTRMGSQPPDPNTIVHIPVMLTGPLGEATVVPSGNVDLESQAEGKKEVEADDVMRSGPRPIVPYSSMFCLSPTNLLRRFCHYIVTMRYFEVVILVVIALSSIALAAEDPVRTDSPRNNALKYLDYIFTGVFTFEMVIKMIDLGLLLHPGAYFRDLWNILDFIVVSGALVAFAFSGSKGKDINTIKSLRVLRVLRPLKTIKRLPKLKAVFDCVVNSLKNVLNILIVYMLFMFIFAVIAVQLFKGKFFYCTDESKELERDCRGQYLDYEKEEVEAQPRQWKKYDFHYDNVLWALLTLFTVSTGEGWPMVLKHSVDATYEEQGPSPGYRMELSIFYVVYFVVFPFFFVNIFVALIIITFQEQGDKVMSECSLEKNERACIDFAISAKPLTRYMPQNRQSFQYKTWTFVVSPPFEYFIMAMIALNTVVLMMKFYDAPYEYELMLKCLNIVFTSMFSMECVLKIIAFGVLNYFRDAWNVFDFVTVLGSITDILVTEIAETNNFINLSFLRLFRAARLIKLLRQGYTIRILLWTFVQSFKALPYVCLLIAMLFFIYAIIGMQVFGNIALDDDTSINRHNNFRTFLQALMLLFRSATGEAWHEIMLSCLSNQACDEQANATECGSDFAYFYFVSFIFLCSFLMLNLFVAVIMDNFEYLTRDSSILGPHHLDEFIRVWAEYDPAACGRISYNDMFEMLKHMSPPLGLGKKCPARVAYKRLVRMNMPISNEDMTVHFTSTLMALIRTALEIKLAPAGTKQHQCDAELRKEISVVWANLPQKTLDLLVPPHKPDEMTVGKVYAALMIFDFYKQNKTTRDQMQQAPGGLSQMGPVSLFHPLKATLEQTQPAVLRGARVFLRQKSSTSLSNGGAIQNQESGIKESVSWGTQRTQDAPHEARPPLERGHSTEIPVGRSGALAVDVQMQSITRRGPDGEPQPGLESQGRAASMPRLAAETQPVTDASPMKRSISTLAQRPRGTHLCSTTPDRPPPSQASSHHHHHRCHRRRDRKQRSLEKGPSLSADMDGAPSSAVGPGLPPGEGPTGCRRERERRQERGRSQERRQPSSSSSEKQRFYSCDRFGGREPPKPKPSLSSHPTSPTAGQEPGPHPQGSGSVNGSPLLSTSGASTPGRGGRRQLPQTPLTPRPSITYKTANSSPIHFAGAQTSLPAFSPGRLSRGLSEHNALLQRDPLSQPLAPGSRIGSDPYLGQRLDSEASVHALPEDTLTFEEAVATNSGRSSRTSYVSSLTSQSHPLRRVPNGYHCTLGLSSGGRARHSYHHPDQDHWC
T6 sequence (Q02410 whole entry): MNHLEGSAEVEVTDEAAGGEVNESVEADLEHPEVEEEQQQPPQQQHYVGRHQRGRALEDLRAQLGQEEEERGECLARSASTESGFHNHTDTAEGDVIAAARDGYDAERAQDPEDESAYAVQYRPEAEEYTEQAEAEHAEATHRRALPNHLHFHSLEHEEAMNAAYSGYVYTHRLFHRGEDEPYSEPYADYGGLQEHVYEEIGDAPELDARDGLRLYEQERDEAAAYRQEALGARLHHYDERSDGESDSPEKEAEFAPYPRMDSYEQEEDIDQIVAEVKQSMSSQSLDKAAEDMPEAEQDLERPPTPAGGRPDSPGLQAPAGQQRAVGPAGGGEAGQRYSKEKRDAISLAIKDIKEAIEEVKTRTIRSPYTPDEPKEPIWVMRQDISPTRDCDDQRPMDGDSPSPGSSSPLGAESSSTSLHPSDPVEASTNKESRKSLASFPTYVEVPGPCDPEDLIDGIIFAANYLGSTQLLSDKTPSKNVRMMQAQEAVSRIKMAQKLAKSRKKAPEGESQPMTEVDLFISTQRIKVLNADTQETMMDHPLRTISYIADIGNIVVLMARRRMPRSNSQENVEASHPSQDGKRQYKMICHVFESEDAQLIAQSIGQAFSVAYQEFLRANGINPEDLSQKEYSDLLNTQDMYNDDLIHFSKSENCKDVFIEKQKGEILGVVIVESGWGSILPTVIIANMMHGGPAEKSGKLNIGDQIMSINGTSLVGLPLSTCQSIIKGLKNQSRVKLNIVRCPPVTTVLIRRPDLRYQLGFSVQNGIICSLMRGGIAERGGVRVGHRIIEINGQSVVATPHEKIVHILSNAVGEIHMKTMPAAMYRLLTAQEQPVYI
Protein Rev, sequence (P04618 whole entry): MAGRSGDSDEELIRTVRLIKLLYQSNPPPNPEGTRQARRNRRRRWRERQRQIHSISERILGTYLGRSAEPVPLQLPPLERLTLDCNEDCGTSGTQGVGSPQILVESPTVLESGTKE
Tyrosine-protein phosphatase non-receptor type 12, sequence (Q05209 whole entry): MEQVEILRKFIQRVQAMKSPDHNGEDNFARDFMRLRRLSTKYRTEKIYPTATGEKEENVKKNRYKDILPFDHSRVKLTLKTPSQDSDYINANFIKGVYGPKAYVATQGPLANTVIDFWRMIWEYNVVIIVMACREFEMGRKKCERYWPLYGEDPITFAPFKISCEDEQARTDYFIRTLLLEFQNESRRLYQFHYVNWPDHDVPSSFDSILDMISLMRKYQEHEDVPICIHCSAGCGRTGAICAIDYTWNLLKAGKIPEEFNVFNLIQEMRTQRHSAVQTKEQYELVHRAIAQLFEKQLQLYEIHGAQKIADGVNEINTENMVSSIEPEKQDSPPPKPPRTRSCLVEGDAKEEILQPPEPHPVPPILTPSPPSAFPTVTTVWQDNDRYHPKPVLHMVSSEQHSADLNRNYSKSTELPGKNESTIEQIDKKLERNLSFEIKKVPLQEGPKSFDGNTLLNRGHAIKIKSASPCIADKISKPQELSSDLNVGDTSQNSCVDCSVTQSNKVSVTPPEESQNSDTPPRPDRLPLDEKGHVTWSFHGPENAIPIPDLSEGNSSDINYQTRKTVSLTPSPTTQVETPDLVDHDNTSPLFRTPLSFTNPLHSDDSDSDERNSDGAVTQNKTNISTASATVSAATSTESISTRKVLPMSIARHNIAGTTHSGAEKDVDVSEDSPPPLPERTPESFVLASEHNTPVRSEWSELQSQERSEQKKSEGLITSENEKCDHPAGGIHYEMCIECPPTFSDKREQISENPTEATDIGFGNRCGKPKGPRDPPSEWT

N#Cc1nc(-c2ccco2)oc1N1CCN(C(c2ccccc2)c2ccccc2)CC1
AC50 (Trypsin): 41.5 µM (active) | AC50 (CAAX prenyl protease 2): 0.99 µM (active)

O=C(c1ccco1)N1CCN(C(=O)N2c3ccccc3Sc3ccccc32)CC1
EC50 (BJ [1]): 13.2 µM (inconclusive) | EC50 (BJ [2]): 8.08 µM (inconclusive) | EC50 (BJ [3]): 1.41 µM (inconclusive) | IC50 (J774.A1): < 0.05 µM (inactive) | EC50 [4]: 0.381 µM (active) | EC50 [5]: < 0.1 µM (active) | EC50 [6]: 0.136 µM (active) | EC50 (cells): 0.291 µM (active) | EC50 [7]: 6.59 µM (inconclusive) | IC50 (Prothrombin): > 50 µM (not active) | EC50 [8]: 0.295 µM (active) | EC50 [9]: < 0.1 µM (active)

Clc1ccc(/C=N/c2c(-c3ccco3)nc3ccccn23)cc1
CC50 [10]: > 40 µM (active) | IC50 (Protein Tat): 6.48 µM (inconclusive) | IC50 (Protein Rev): > 75.4 µM (not active) | IC50 [11]: > 66 µM (inactive) | IC50 [12]: 2.59 µM (active) | IC50 [13]: 59.2 µM (inactive)

COc1cc(/C=C2\SC(=O)N(CC(=O)Nc3ccc(C)cc3)C2=O)cc(Cl)c1OCC(=O)O
IC50 [14]: 0.256 µM (active) | IC50 [15]: 2.4 µM (active) | IC50 [16]: < 1.23 µM (inactive) | AC50 [17]: > 100 µM (inactive) | IC50 [18]: 1.18 µM (active) | IC50 [19]: > 50 µM (inactive) | IC50 [20]: 0.803 µM (active) | IC50 [21]: 1.51 µM (active) | IC50 [22]: 6.66 µM (active) | IC50 [23]: > 67 µM (not active) | IC50 [24]: 6.24 µM (active) | IC50 [25]: 6.91 µM (active) | IC50 [26]: 5.01 µM (active) | IC50 [27]: 0.313 µM (active) | IC50 [28]: 75.2 µM (active)
